Test results as given in patent US7405238B2, “Pharmacological inducement of the fed mode for enhanced drug administration to the stomach” (priority 1999, dated 2008).
Several values for one entry are separate records, joined by “and”; a condition that tells them apart may be missing. Equal entries are not always repeated. Peptide text beside a SMILES is read from it.

Key:
[1] = tested on: female beagles; experiment: Retention time of BaSO4 swelling tablet in stomach, dogs fasted 24 hours, Example 3; type: in vivo, dog; details: mean of five dogs fasted 24 hours
Procedure: (§1) Test formulations were administered in various regimens. In some of the tests, the dogs were given an immediate release (IR) regimen in the form of a single gelatin capsule containing a test species in a selected amount. A simulated controlled release (SCR) regimen was used in other tests by administering a gelatin capsule containing a test species in a selected amount every half hour. A third regimen was a controlled release (CR) regimen, in which the test species was incorporated in a compressed tablet of POLYOX 303 and magnesium stearate. […] The barium tablets were visualized every thirty minutes by fluoroscopy until they left the stomach. The time of the last observation of the 800 mg tablet in the stomach was recorded as the retention time. The test group also included a negative control using a fasted dog with no test formulations administered, and a positive control using a dog that was fed a standard 50 g meal but no test formulations.
(§2) Further tests were performed on a second group of dogs, consisting of five female beagles one year in age and weighing 5-7 kg each. The test protocols were the same as those in Example 1 except that the dogs were fasted for 24 hours before each test, and the test results are listed in Table II below, which lists the mean of the results observed among the five dogs as well as the range among the dogs for each test.
Further tests were performed on the second group of dogs, consisting of five female beagles one year in age and weighing 5-7 kg each. The test protocols were the same as those in Example 2, except that the controls were replaced by a negative control consisting of AVICEL (microcrystalline cellulose, FMC Corporation, Philadelphia, Pa., USA), administered as a simulated controlled release at 10 mg every half hour. The test results are listed in Table III below, which lists the mean of the results observed among the five dogs as well as the range among the dogs for each test.

[2] = tested on: female beagles; experiment: Retention time of BaSO4 swelling tablet in stomach, dogs fasted 24 hours, Example 2; type: in vivo, dog; details: mean of five dogs fasted 24 hours
Procedure: (§3) Four dogs, all male beagles ranging in age from 10 months to 21 months and weighing from 6 kg to 10 kg each, were housed individually and each was fed a 1:1 (weight ratio) wet:dry mixture of food weighing 300 g once daily at 3:00 p.m. Water was provided ad libitum. The dogs were fasted for 6-8 hours overnight, preceded by the removal of feces and any uneaten food.
as §1, §2

[3] = tested on: male beagles; experiment: Retention time of BaSO4 swelling tablet in stomach, dogs, Example 1; type: in vivo, dog; details: 7.94 × 19.05 mm BaSO4 tablet, mean of four dogs
Procedure: as §3, §1
The test results in terms of the retention times in hours are shown in Table I, which lists the means of the results observed among the four dogs as well as the range among the dogs for each test.

[4] = tested on: dogs; details: administered in excess of 1 g; cited from earlier work

COC(=O)[C@H](Cc1ccccc1)NC(=O)[C@@H](N)CC(=O)O [Aspartame] (H-Asp-Phe-OMe)
Retention Time (h) Mean ([1]; 200 mg, IR): 3.8 ± 2.3 h

CCCCCCCCCCCCCCCC[n+]1ccccc1.[Cl-] [Cetylpyridinium chloride, reference compound]
Retention Time (h) Mean ([1]; 5 mg, IR): 4.0 ± 2.8 h | Retention Time (h) Mean ([1]; 20 mg, IR): 4.45 ± 2.6 h | Retention Time (h) Mean ([2]; 20 mg, IR): 4.5 ± 2.6 h | Retention Time (h) Mean ([2]; 50 mg, IR): 4.0 ± 1.3 h | Retention Time (h) Mean ([2]; 100 mg, IR): 3.2 ± 0.9 h

N=C(N)NCCC[C@H](N)C(=O)O [L-Arginine]
Retention Time (h) Mean ([3]; 300 mg, CR (POLYOX 303 tablet)): 3.6 ± 1.6 h | Retention Time (h) Mean ([3]; 400 mg, IR): 1.6 ± 0.2 h | effect on gastric emptying [4]: slowed gastric emptying

CN(C)C(=O)C(CCN1CCC(O)(c2ccc(Cl)cc2)CC1)(c1ccccc1)c1ccccc1 [Loperamide, 4-(p-chlorophenyl)-4-hydroxy-N,N-dimethyl-α,α-diphenyl-1-piperidinebutyramide, reference compound]
Retention Time (h) Mean ([3]; 0.1 mg, IR): 2.5 ± 1.3 h

CCCCC(CC)COC(=O)CC(C(=O)OCC(CC)CCCC)S(=O)(=O)O (stereo not drawn) [Na docusate, reference compound]
Retention Time (h) Mean ([3]; 200 mg, IR): 2.6 ± 1.4 h

NC(Cc1c[nH]c2ccccc12)C(=O)NC(Cc1c[nH]c2ccccc12)C(=O)O (stereo not drawn) [Trp-Trp]
Retention Time (h) Mean ([1]; SCR, 0.5 mg every thirty minutes): 4.6 ± 1.7 h | Retention Time (h) Mean ([1]; SCR, 2 mg every thirty minutes): 4.2 ± 1.1 h | Retention Time (h) Mean ([3]; 200 mg, IR): 3.1 ± 3.9 h and 2.1 ± 1.8 h | Retention Time (h) Mean ([3]; SCR, 20 mg every thirty minutes): 2.8 ± 0.3 h | Retention Time (h) Mean ([2]; SCR, 5 mg every thirty minutes): 4.6 ± 1.5 h | Retention Time (h) Mean ([2]; SCR, 10 mg every thirty minutes): 2.4 ± 1.8 h | Retention Time (h) Mean ([2]; SCR, 40 mg every thirty minutes): 3.4 ± 1.9 h

OC[C@@H](O)[C@H](O)[C@@H](O)CO [Xylitol, CH2OH—(CHOH)3—CH2OH]
Retention Time (h) Mean ([3]; 600 mg, IR): 3.1 ± 1.5 h

N[C@@H](Cc1c[nH]c2ccccc12)C(=O)O [tryptophan]
effect on gastric emptying [4]: slowed gastric emptying

O=C(O)CCCCC1CCSS1 (stereo not drawn) [α-Lipoic acid]
Retention Time (h) Mean ([3]; 150 mg, IR): 2.8 ± 1.6 h

glycine
effect on gastric emptying [4]: slowed gastric emptying

β-Casomorphin: peptide released from β-casein; bovine sequence Tyr-Pro-Phe-Pro-Gly-Pro-Ile; species tested not stated (YPFPGPI; printed: Tyr-Pro-Phe-Pro-Gly-Pro-Ile)
Retention Time (h) Mean ([1]; 10 mg, IR): 3.5 ± 2.1 h | Retention Time (h) Mean ([3]; 25 mg, IR): 2.6 ± 1.1 h
